Source: publication PMC12412615, “Tailored SirReal-type inhibitors enhance SIRT2 inhibition through ligand stabilization and disruption of NAD^+ co-factor binding” (RSC Medicinal Chemistry, 2025)

Assays:
Assay type in all cases: biochemical
SIRT2 = target: T1, SIRT2 (Homo sapiens, UniProt Q8IXJ6); assay: Fluorescence-based SIRT2 deacetylation inhibition assay (Reaction Biology Corporation); parameters: purchased Reaction Biology Corporation (Malvern, USA), contract assay; conditions: for IC50: fluorogenic peptide of p53 residues 379–382 (RHKK(Ac)-Fl), mean with standard deviation, n = 3
T1 sequence (Q8IXJ6 1-389): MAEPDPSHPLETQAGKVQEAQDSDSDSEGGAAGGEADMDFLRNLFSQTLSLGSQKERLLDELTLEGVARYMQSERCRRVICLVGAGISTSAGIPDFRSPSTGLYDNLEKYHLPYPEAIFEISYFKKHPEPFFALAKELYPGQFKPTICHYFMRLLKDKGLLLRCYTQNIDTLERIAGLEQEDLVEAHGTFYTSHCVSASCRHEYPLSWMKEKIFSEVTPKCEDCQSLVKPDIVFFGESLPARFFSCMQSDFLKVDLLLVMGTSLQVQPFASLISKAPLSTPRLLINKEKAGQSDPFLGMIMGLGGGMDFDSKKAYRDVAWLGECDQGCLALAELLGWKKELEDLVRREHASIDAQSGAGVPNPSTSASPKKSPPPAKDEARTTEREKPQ
Procedure: The determination of SIRT2 inhibitory activity was performed by Reaction Biology Corporation (Malvern, USA) with a fluorescence-based assay utilizing the fluorogenic peptide of p53 residues 379–382 (RHKK(Ac)-Fl). […]. […] […]. On the contrary, we observed a significant increase in potency by the introduction of halogens at the R^2 position (compounds 29–31), highlighting the importance of the position of the functional group modifications. […]. […] Additional factors such as the atomic radius and thus steric requirements of these halogens may also play a significant role in the increase in potency, where the smaller chlorine atom may experience less steric effects upon binding at the active site compared to the larger bromine and iodine atoms. […]. […] IC50 values against SIRT2 are given as mean with standard deviations (n = 3). Inhibition percentages at 50 μM for SIRT1, 3 and 5 are given as mean without standard deviations (n = 2)
(§1) The determination of inhibitory activity on the corresponding sirtuin enzymes was carried out based on a fluorescence-based assay commissioned by Reaction Biology Corporation (Malvern, USA) following an internal experimental protocol. Test substances were prepared in DMSO, delivered into the respective enzyme mixture (prepared with reaction buffer: Tris-HCl, pH = 8) and incubated for 10 minutes at 30 °C. Subsequently the substrate mixture (NAD^+ and a 7-amino-4-methylcoumarin-based fluorogenic peptide substrate) was added to initiate the deacetylation reaction. After 2 hours incubation at 30 °C, 2 mM nicotinamide (universal sirtuin inhibitor, to stop the reaction) and protease-based developer (to generate fluorescence by the cleavage of 7-amino-4-methylcoumarin) was added. At 30 °C 1 hour later, the respective fluorescence was measured (extinction/emission = 360 nm/460 nm). The inhibitory effect of the test compounds is indirectly proportional to the amount of converted fluorescent substrate standardized as 100% activity of the control without inhibitor. The test substances were tested in 10-dose IC50 triplicate mode, with 3-fold serial dilution starting at 50 μM final reaction concentration and if necessary, starting at 100 μM. For each serially diluted replicate of the triplicate, an IC50 value was determined by sigmoidal curve fitting, resulting in three IC50 values, from which the mean and corresponding standard deviation were subsequently calculated. Data processing was performed based on Prism 8.0.2 software (GraphPad Software, Boston, USA). Subtype selectivity on SIRT1, SIRT3 and SIRT5 was evaluated in a single dose duplicate mode at 50 μM final test compound concentration according to previous outlined internal protocol of Reaction Biology Corporation by determining the enzyme activity of the respective sirtuins in % (no inhibitor control as 100% activity).

human SIRT1 = target: T2, human SIRT1 (Homo sapiens, UniProt Q96EB6); assay: Fluorescence-based sirtuin subtype selectivity assay, SIRT1, single dose 50 μM; conditions: 50 μM compound; mean, n = 2
T2 construct: purchased Reaction Biology Corporation (Malvern, USA), contract assay
T2 sequence (Q96EB6 1-747): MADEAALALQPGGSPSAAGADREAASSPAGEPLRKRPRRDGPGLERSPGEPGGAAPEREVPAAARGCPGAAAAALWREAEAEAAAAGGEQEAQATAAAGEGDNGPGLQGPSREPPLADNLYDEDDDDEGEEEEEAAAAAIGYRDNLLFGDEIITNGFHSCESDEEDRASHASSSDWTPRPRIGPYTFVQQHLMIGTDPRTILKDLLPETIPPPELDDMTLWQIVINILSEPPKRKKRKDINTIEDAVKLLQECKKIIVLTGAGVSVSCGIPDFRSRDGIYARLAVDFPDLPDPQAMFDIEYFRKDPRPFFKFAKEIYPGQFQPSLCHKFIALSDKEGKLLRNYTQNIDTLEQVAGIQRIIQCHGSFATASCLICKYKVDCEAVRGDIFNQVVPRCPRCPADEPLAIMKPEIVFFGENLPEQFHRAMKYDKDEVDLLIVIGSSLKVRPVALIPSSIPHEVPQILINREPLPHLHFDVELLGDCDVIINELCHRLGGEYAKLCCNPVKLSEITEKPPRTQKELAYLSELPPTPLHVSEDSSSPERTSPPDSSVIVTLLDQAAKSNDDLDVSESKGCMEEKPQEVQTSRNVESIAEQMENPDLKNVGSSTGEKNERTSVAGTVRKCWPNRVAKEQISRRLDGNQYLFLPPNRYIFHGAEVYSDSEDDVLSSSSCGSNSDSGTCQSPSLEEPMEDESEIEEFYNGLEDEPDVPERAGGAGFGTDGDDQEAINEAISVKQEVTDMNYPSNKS
Procedure: (§2) IC50 values against SIRT2 are given as mean with standard deviations (n = 3). Inhibition percentages at 50 μM for SIRT1, 3 and 5 are given as mean without standard deviations (n = 2)
(§3) The determination of subtype selectivity against SIRT1, 3 and 5 was performed by measuring the residual enzyme activity after treatment with the corresponding inhibitor at a fixed concentration of 50 μM and subsequent calculation of the percentage inhibition.
as §1

human SIRT3 = target: T3, human SIRT3 (Homo sapiens, UniProt Q9NTG7); assay: Fluorescence-based sirtuin subtype selectivity assay, SIRT3, single dose 50 μM; conditions: 50 μM compound; mean, n = 2
T3 construct: purchased Reaction Biology Corporation (Malvern, USA), contract assay
T3 sequence (Q9NTG7 1-399): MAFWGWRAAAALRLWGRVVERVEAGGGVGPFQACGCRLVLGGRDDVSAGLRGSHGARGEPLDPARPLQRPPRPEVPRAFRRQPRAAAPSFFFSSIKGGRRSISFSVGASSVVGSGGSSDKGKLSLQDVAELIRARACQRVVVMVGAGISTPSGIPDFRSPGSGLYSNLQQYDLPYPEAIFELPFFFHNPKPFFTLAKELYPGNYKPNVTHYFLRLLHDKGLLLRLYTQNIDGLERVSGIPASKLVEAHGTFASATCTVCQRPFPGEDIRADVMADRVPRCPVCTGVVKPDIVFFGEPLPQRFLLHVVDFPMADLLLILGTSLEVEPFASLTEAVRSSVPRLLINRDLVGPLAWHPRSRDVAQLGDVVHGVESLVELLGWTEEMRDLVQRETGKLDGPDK
Procedure: as §2, §3, §1

human SIRT5 = target: T4, human SIRT5 (Homo sapiens, UniProt Q9NXA8); assay: Fluorescence-based sirtuin subtype selectivity assay, SIRT5, single dose 50 μM; conditions: 50 μM compound; mean, n = 2
T4 construct: purchased Reaction Biology Corporation (Malvern, USA), contract assay
T4 sequence (Q9NXA8 37-310): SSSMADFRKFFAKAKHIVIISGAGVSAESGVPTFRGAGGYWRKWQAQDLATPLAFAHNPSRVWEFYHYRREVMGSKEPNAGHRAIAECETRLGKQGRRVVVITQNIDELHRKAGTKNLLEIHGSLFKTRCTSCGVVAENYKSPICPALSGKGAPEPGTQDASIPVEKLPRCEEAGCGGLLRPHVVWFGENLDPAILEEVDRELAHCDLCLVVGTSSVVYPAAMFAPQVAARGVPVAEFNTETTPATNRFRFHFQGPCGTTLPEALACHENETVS
Procedure: as §2, §3, §1

IC50 (SIRT2) [nM]	inhibition at 50 µM (human SIRT1) [%]	inhibition at 50 µM (human SIRT3) [%]	inhibition at 50 µM (human SIRT5) [%]	Inhibition of SIRT1 in %@50 μM (human SIRT1)	Fold increase in SIRT2 potency compared to lead structure (SIRT2; 29 vs 24a, 46 vs SirReal2) [fold]	SMILES
29 ± 2	5	22	12			Cc1cc(C)nc(SCC(=O)Nc2cccc(COc3ccc(NC(=O)c4cnn(C)c4)c(I)c3)c2)n1 [Compound 31, N-(4-((3-(2-((4,6-Dimethylpyrimidin-2-yl)thio)acetamido)benzyl)oxy)-2-iodophenyl)-1-methyl-1H-pyrazole-4-carboxamide]
294 ± 17	29	5	10			Cc1cc(C)nc(SCC(=O)Nc2cccc(COc3ccc(NC(=O)c4cnn(C)c4)cc3B(O)O)c2)n1 [Compound 13, (2-((3-(2-((4,6-Dimethylpyrimidin-2-yl)thio)acetamido)benzyl)oxy)-5-(1-methyl-1H-pyrazole-4-carboxamido)phenyl)boronic acid]
125 ± 18	6	35	2			Cc1cc(C)nc(SCC(=O)Nc2cccc(COc3ccc(NC(=O)c4cnn(C)c4)cc3C#N)c2)n1 [Compound 14, N-(3-Cyano-4-((3-(2-((4,6-dimethylpyrimidin-2-yl)thio)acetamido)benzyl)oxy)phenyl)-1-methyl-1H-pyrazole-4-carboxamide]
202 ± 6	71	24	14			Cc1cc(C)nc(SCC(=O)Nc2cccc(COc3ccc(NC(=O)c4cnn(C)c4)c(B(O)O)c3)c2)n1 [Compound 33, (5-((3-(2-((4,6-Dimethylpyrimidin-2-yl)thio)acetamido)benzyl)oxy)-2-(1-methyl-1H-pyrazole-4-carboxamido)phenyl)boronic acid]
81 ± 10		24	13	n.i.		Cc1cc(C)nc(SCC(=O)Nc2cccc(COc3ccc(NC(=O)c4cnn(C)c4)cc3Br)c2)n1 [Compound 11, N-(3-Bromo-4-((3-(2-((4,6-dimethylpyrimidin-2-yl)thio)acetamido)benzyl)oxy)phenyl)-1-methyl-1H-pyrazole-4-carboxamide]
147 ± 13	2	24	16			Cc1cc(C)nc(SCC(=O)Nc2cccc(COc3ccc(NC(=O)c4cnn(C)c4)cc3C=O)c2)n1 [Compound 12, N-(4-((3-(2-((4,6-Dimethylpyrimidin-2-yl)thio)acetamido)benzyl)oxy)-3-formylphenyl)-1-methyl-1H-pyrazole-4-carboxamide]
184 ± 9		7	6	n.i.		Cc1cc(C)nc(SCC(=O)Nc2cccc(COc3ccc(NC(=O)c4cnn(C)c4)c(C=O)c3)c2)n1 [Compound 32, N-(4-((3-(2-((4,6-Dimethylpyrimidin-2-yl)thio)acetamido)benzyl)oxy)-2-formylphenyl)-1-methyl-1H-pyrazole-4-carboxamide]
235 ± 19		15	2	n.i.		Cc1cc(C)nc(SCC(=O)Nc2ncc(Cc3cccc4ccc(CC#N)cc34)s2)n1 [Compound 47, N-(5-((7-(Cyanomethyl)naphthalen-1-yl)methyl)thiazol-2-yl)-2-((4,6-dimethylpyrimidin-2-yl)thio)acetamide]
54 ± 7	4	43	1			Cc1cc(C)nc(SCC(=O)Nc2cccc(COc3ccc(NC(=O)c4cnn(C)c4)c(Br)c3)c2)n1 [Compound 30, N-(2-Bromo-4-((3-(2-((4,6-dimethylpyrimidin-2-yl)thio)acetamido)benzyl)oxy)phenyl)-1-methyl-1H-pyrazole-4-carboxamide]
356 ± 42	11	13	21			Cc1cc(C)nc(SCC(=O)Nc2ncc(Cc3cccc4ccc(C=O)cc34)s2)n1 [Compound 49, 2-((4,6-Dimethylpyrimidin-2-yl)thio)-N-(5-((7-formylnaphthalen-1-yl)methyl)thiazol-2-yl)acetamide]
91 ± 7	23	31	4			Cc1cc(C)nc(SCC(=O)Nc2cccc(COc3ccc(NC(=O)c4cnn(C)c4)c(C#N)c3)c2)n1 [Compound 34, N-(2-Cyano-4-((3-(2-((4,6-dimethylpyrimidin-2-yl)thio)acetamido)benzyl)oxy)phenyl)-1-methyl-1H-pyrazole-4-carboxamide]
122 ± 8	6	9	8		2	Cc1cc(C)nc(SCC(=O)Nc2ncc(Cc3cccc4ccc(C#N)cc34)s2)n1 [Compound 46, N-(5-((7-Cyanonaphthalen-1-yl)methyl)thiazol-2-yl)-2-((4,6-dimethylpyrimidin-2-yl)thio)acetamide]
